Results taken from US11000033B2, “Ketone or oxime compound, and herbicide” (NISSAN CHEMICAL CORPORATION, priority 2014, dated 2021).

Assays:
Format in all cases: in vivo
Amaranthus retroflexus = assay: Test Example 4: herbicidal effect by soil treatment (symbol N); settings: for N: Amaranthus retroflexus, herbicidal effect grade: 320 g/ha
Method in brief: (§1)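 Seeds were sown in sterilized diluvial soil, covered with about 1.5 cm of soil, and the soil surface was sprayed with a water-diluted emulsion of the compound at a predetermined rate. Plants grew in a greenhouse at 25° C. to 30° C.; effects were scored visually 3 weeks after application.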

Apera spica-venti [1] = assay: Test Example 5: herbicidal effect by foliage application, plastic box (symbol L); settings: 320 g/ha, 3 weeks after application
Method in brief: (§2)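 Seeds were sown in sterilized diluvial soil, covered with about 1.5 cm of soil and grown 14 days in a greenhouse at 25° C. to 30° C. An emulsifiable formulation diluted in water to a set rate was sprayed over foliage, and injury was scored 3 weeks later.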

Alopecurus myosuroides = assay: Test Example 4: herbicidal effect by soil treatment (symbol J); settings: for J: Alopecurus myosuroides, herbicidal effect grade: 320 g/ha
Method in brief: as §1

transplanted rice plant = assay: Test Example 1: effect on crop, application before weed generation in submerged conditions (symbol a); settings: application herbicide amount 320 g/ha
Method in brief: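 Alluvial soil pots flooded to 4 cm water, sown with Echinochloa oryzacola, Scirpus juncoides and Monochoria vaginalis, then transplanted with 2.5 leaf stage rice seedlings; pre-emergence application. Greenhouse 25° C. to 30° C.; scored 0–5 by herbicidal ratio 3 weeks after application.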

[2] = test system: Echinochloa crus-galli var. crus-galli; assay: Test Example 3: herbicidal effect by foliage application, Wagner pot (symbol H); settings: application herbicide amount 320 g/ha
Method in brief: (§3)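 Plants sown in submerged alluvial soil (water depth 0.1–0.5 cm) in a 25–30 °C greenhouse and grown 14 days. An emulsion of the compound diluted in water to a set herbicide amount was sprayed uniformly on foliage. Effect on each plant scored 3 weeks after application.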

soybean [3] = assay: Test Example 5: effect on crop by foliage application, plastic box (symbol d); settings: 320 g/ha, 3 weeks after application
Method in brief: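 Crop and weed seeds sown in spots in sterilized diluvial soil in plastic boxes and covered with about 1.5 cm soil. Plants raised in a greenhouse at 25° C. to 30° C. for foliar application.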

soybean [4] = assay: Test Example 4: effect on crop by soil treatment (symbol d); settings: for d: soybean, effect grade on crop: 320 g/ha
Method in brief: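 Seeds were sown in spots on sterilized diluvial soil in a plastic box and covered with about 1.5 cm of soil. Plants were then grown in a greenhouse at 25° C. to 30° C.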

Apera spica-venti [5] = assay: Test Example 4: herbicidal effect by soil treatment (symbol L); settings: for L: Apera spica-venti, herbicidal effect grade: 320 g/ha
Method in brief: as §1

Veronica persica = assay: Test Example 4: herbicidal effect by soil treatment (symbol R); settings: for R: Veronica persica, herbicidal effect grade: 320 g/ha
Method in brief: as §1

[6] = test system: Echinochloa crus-galli var. crus-galli; assay: Test Example 5: herbicidal effect by foliage application, plastic box (symbol H); settings: 320 g/ha, 3 weeks after application
Method in brief: as §2

Stellaria media = assay: Test Example 4: herbicidal effect by soil treatment (symbol P); settings: for P: Stellaria media, herbicidal effect grade: 320 g/ha
Method in brief: as §1

Leptochloa chinensis = assay: Test Example 3: herbicidal effect by foliage application, Wagner pot (symbol D); settings: application herbicide amount 320 g/ha
Method in brief: as §3

Setaria viridis = assay: Test Example 5: herbicidal effect by foliage application, plastic box (symbol G); settings: 320 g/ha, 3 weeks after application
Method in brief: as §2

Abutilon theophrasti = assay: Test Example 5: herbicidal effect by foliage application, plastic box (symbol M); settings: 320 g/ha, 3 weeks after application
Method in brief: as §2

[7] = application herbicide amount 320 g/ha

With `CCC(Oc1ccc2ncc(Br)cc2c1)C(=O)OC1=C(c2c(C)cc(C)cc2C)C(=O)C(CC(C)=NOC)C1` (stereo not shown) [1-140] the “N: Amaranthus retroflexus, herbicidal effect grade” value (Amaranthus retroflexus) was 5 (Herbicidal ratio of 90% or more (almost completely withered)), the “L: Apera spica-venti, herbicidal effect (criteria 0-5)” value (Apera spica-venti [1]) was 5 (Herbicidal ratio of 90% or more (almost completely withered)) and the “J: Alopecurus myosuroides, herbicidal effect grade” value (Alopecurus myosuroides) was 5 (Herbicidal ratio of 90% or more (almost completely withered)). The “Effect grade on crop, a: transplanted rice plant” value (transplanted rice plant) was 5 (Herbicidal ratio of 90% or more (almost completely withered)), the “herbicidal effect on H (Echinochloa crus-galli var. crus-galli), grade 0-5” value [2] was 5 (Herbicidal ratio of 90% or more (almost completely withered)) and the “d: soybean, effect on crop (criteria 0-5)” value (soybean [3]) was 3 (Herbicidal ratio of 40% or higher and lower than 70%). The “d: soybean, effect grade on crop” value (soybean [4]) was 1 (Herbicidal ratio of 5% or higher and lower than 20%), the “L: Apera spica-venti, herbicidal effect grade” value (Apera spica-venti [5]) was 5 (Herbicidal ratio of 90% or more (almost completely withered)) and the “R: Veronica persica, herbicidal effect grade” value (Veronica persica) was 0 (Herbicidal ratio of 5% or lower (almost no effect)). For the same molecule, the “H: Echinochloa crus-galli var. crus-galli, herbicidal effect (criteria 0-5)” value [6] was 5 (Herbicidal ratio of 90% or more (almost completely withered)), the “P: Stellaria media, herbicidal effect grade” value (Stellaria media) was 0 (Herbicidal ratio of 5% or lower (almost no effect)) and the “herbicidal effect on D (Leptochloa chinensis), grade 0-5” value (Leptochloa chinensis) was 5 (Herbicidal ratio of 90% or more (almost completely withered)). The “G: Setaria viridis, herbicidal effect (criteria 0-5)” value (Setaria viridis) was 5 (Herbicidal ratio of 90% or more (almost completely withered)) and the “M: Abutilon theophrasti, herbicidal effect (criteria 0-5)” value (Abutilon theophrasti) was 4 (Herbicidal ratio of 70% or higher and lower than 90%).
`CON=C(CC1CC(O)=C(c2c(C)cc(C)cc2C)C1=O)C(F)(F)F` (stereo not shown) [1-097] was tested, and the “N: Amaranthus retroflexus, herbicidal effect grade” value (Amaranthus retroflexus) was 0 (Herbicidal ratio of 5% or lower (almost no effect)), the “L: Apera spica-venti, herbicidal effect (criteria 0-5)” value (Apera spica-venti [1]) was 4 (Herbicidal ratio of 70% or higher and lower than 90%) and the “J: Alopecurus myosuroides, herbicidal effect grade” value (Alopecurus myosuroides) was 2 (Herbicidal ratio of 20% or higher and lower than 40%). The “Effect grade on crop, a: transplanted rice plant” value (transplanted rice plant) was 3 (Herbicidal ratio of 40% or higher and lower than 70%), the “d: soybean, effect on crop (criteria 0-5)” value (soybean [3]) was 3 (Herbicidal ratio of 40% or higher and lower than 70%) and the “d: soybean, effect grade on crop” value (soybean [4]) was 0 (Herbicidal ratio of 5% or lower (almost no effect)). The “L: Apera spica-venti, herbicidal effect grade” value (Apera spica-venti [5]) was 0 (Herbicidal ratio of 5% or lower (almost no effect)), the “R: Veronica persica, herbicidal effect grade” value (Veronica persica) was 0 (Herbicidal ratio of 5% or lower (almost no effect)) and the “H: Echinochloa crus-galli var. crus-galli, herbicidal effect (criteria 0-5)” value [6] was 5 (Herbicidal ratio of 90% or more (almost completely withered)). The “P: Stellaria media, herbicidal effect grade” value (Stellaria media) was 0 (Herbicidal ratio of 5% or lower (almost no effect)), the “G: Setaria viridis, herbicidal effect (criteria 0-5)” value (Setaria viridis) was 5 (Herbicidal ratio of 90% or more (almost completely withered)) and the “M: Abutilon theophrasti, herbicidal effect (criteria 0-5)” value (Abutilon theophrasti) was 3 (Herbicidal ratio of 40% or higher and lower than 70%).
In the case of `CON=C(CC1CC(O)=C(c2c(C)cc(-c3ccccc3)cc2C)C1=O)C1CC1` (mixture of isomers) [9-028], the “Herbicidal effect grade, N: Amaranthus retroflexus” value (Amaranthus retroflexus; [7]) is reported as 0 (Herbicidal ratio of 5% or lower (almost no effect)), the “L: Apera spica-venti, herbicidal effect grade” value (Apera spica-venti [1]) is reported as 5 (Herbicidal ratio of 90% or more (almost completely withered)) and the “Herbicidal effect grade, J: Alopecurus myosuroides” value (Alopecurus myosuroides; [7]) is reported as 5 (Herbicidal ratio of 90% or more (almost completely withered)). For the same molecule, the “a (transplanted rice plant) effect on crop grade” value (transplanted rice plant) was 5 (Herbicidal ratio of 90% or more (almost completely withered)), the “H (Echinochloa crus-galli var. crus-galli) herbicidal effect grade” value ([2]; Table 24) was 5 (Herbicidal ratio of 90% or more (almost completely withered)) and the “d: soybean, effect on crop grade” value (soybean [3]) was 1 (Herbicidal ratio of 5% or higher and lower than 20%). The “Effect on crop grade, d: soybean” value (soybean [4]; [7]) was 0 (Herbicidal ratio of 5% or lower (almost no effect)), the “Herbicidal effect grade, L: Apera spica-venti” value (Apera spica-venti [5]; [7]) was 5 (Herbicidal ratio of 90% or more (almost completely withered)) and the “Herbicidal effect grade, R: Veronica persica” value (Veronica persica; [7]) was 0 (Herbicidal ratio of 5% or lower (almost no effect)). For the same molecule, the “H: Echinochloa crus-galli var. crus-galli, herbicidal effect grade” value [6] was 5 (Herbicidal ratio of 90% or more (almost completely withered)), the “Herbicidal effect grade, P: Stellaria media” value (Stellaria media; [7]) was 0 (Herbicidal ratio of 5% or lower (almost no effect)) and the “D (Leptochloa chinensis) herbicidal effect grade” value (Leptochloa chinensis; Table 24) was 5 (Herbicidal ratio of 90% or more (almost completely withered)). The “G: Setaria viridis, herbicidal effect grade” value (Setaria viridis) was 5 (Herbicidal ratio of 90% or more (almost completely withered)) and the “M: Abutilon theophrasti, herbicidal effect grade” value (Abutilon theophrasti) was 1 (Herbicidal ratio of 5% or higher and lower than 20%).
